Assay results from US20250050053A1, “METHOD OF TREATMENT AND SELECTION OF PATIENTS BENEFITING FROM AGOMELATINE BASED ON EEG MEASUREMENTS” (Alto Neuroscience, Inc., priority 2023, published 2025).

Tests used:
[1] = system: patients with major depressive disorder; test: Open-label trials of adjunctive agomelatine 25 mg at bedtime; baseline EEG machine learning models predicting change in MADRS; format: in vivo, human
Description: The inventors conducted two parallel open-label clinical trials of agomelatine at 25 mg once at bedtime in patients with major depressive disorder (NCT05118750 and NCT05157945, whose data was pooled in these analyses). […] Patients were evaluated over the course of eight weeks of treatment.
EEG data were collected at rest (encompassing both eyes open and eyes closed conditions) prior to treatment using a 19-channel EEG system covering the conventional 10-20 electrode locations. A total of 107 patients with moderate to severe depression (MADRS 20 and PHQ-9≥10) had EEG data (107 with eyes open (REO) EEG, 105 with eyes closed (REC) EEG). Quality control assessments were conducted, yielding 105 REO patient datasets and 103 REC patient datasets. […] The training dataset consisted of 60 REO patient datasets and 60 REC patient datasets. The holdout set consisted of […] and […].
In order to compile these individual signals into a single EEG composite entropy model for prediction of treatment outcome, the inventors conducted 10-fold cross-validated machine learning using elastic net regularization against an outcome of high versus low response to agomelatine. Cross-validation divides the training dataset iteratively into 9/10 for training the machine learning model and 1/10 for evaluating the predictive utility of the model (i.e., participants left out of the training itself, though part of the aforementioned training dataset). The training sample is then divided in this way until each participant has been left out of the training subset.
The Cohen's d effect sizes at these weeks are all >0.4, indicating a substantial effect size for the prediction, especially considering that the meta-analytically calculated all-comer (i.e., unselected depression patients) effect size for the difference in treatment response to agomelatine (as monotherapy) versus placebo is d=0.26 (Cipriani et al., Lancet., 2018, 391(10128):1357-1366, PMID: 29477251).
In addition to sample entropy, the inventors developed similar machine learning models to test the predictive utility of a range of other EEG complexity measures, as well as other common EEG indices. […] Thus, certain complexity measures appear to carry consistent and strong prediction of agomelatine outcome.

[2] = system: unselected depression patients; conditions: Cipriani et al. 2018; cited from earlier work

## COc1ccc2cccc(CCNC(C)=O)c2c1 [agomelatine, N-[2-(7-methoxynaphthalen-1-yl)ethyl]acetamide]
[1]; EEG sample entropy machine learning model, cross-validation left-out data of training dataset, all weeks
  Cohen's d effect size, predicted responders vs non-responders, change in MADRS: > 0.4
[1]; REC, Approximate Entropy, lower gamma, Week 1
  Cohen's d, prediction of agomelatine outcome: 0.23
[1]; REC, Approximate Entropy, lower gamma, Week 2
  Cohen's d, prediction of agomelatine outcome: 0.29
[1]; REC, Approximate Entropy, lower gamma, Week 4
  Cohen's d, prediction of agomelatine outcome: 0.46
[1]; REC, Detrended Fluctuation Analysis, lower beta, Week 1
  Cohen's d, prediction of agomelatine outcome: 0.49
[1]; REC, Detrended Fluctuation Analysis, lower beta, Week 2
  Cohen's d, prediction of agomelatine outcome: 0.44
[1]; REC, Detrended Fluctuation Analysis, lower beta, Week 4
  Cohen's d, prediction of agomelatine outcome: 0.41
[1]; REC, Detrended Fluctuation Analysis, upper beta, Week 1
  Cohen's d, prediction of agomelatine outcome: 0.19
[1]; REC, Detrended Fluctuation Analysis, upper beta, Week 2
  Cohen's d, prediction of agomelatine outcome: 0.20
[1]; REC, Detrended Fluctuation Analysis, upper beta, Week 4
  Cohen's d, prediction of agomelatine outcome: 0.25
[1]; REC, Higuchi Fractal Dimension, lower beta, Week 1
  Cohen's d, prediction of agomelatine outcome: 0.44
[1]; REC, Higuchi Fractal Dimension, lower beta, Week 2
  Cohen's d, prediction of agomelatine outcome: 0.36
[1]; REC, Higuchi Fractal Dimension, lower beta, Week 4
  Cohen's d, prediction of agomelatine outcome: 0.28
[1]; REC, Higuchi Fractal Dimension, lower gamma, Week 1
  Cohen's d, prediction of agomelatine outcome: 0.64
[1]; REC, Higuchi Fractal Dimension, lower gamma, Week 2
  Cohen's d, prediction of agomelatine outcome: 0.58
[1]; REC, Higuchi Fractal Dimension, lower gamma, Week 4
  Cohen's d, prediction of agomelatine outcome: 0.57
[1]; REC, Higuchi Fractal Dimension, upper beta, Week 1
  Cohen's d, prediction of agomelatine outcome: −0.29
[1]; REC, Higuchi Fractal Dimension, upper beta, Week 2
  Cohen's d, prediction of agomelatine outcome: −0.20
[1]; REC, Higuchi Fractal Dimension, upper beta, Week 4
  Cohen's d, prediction of agomelatine outcome: −0.05
[1]; REC, Higuchi Fractal Dimension, upper gamma, Week 1
  Cohen's d, prediction of agomelatine outcome: 0.16
[1]; REC, Higuchi Fractal Dimension, upper gamma, Week 2
  Cohen's d, prediction of agomelatine outcome: 0.16
[1]; REC, Higuchi Fractal Dimension, upper gamma, Week 4
  Cohen's d, prediction of agomelatine outcome: 0.21
[1]; REC, Katz Fractal Dimension, lower beta, Week 1
  Cohen's d, prediction of agomelatine outcome: 0.47
[1]; REC, Katz Fractal Dimension, lower beta, Week 2
  Cohen's d, prediction of agomelatine outcome: 0.42
[1]; REC, Katz Fractal Dimension, lower beta, Week 4
  Cohen's d, prediction of agomelatine outcome: 0.37
[1]; REC, Katz Fractal Dimension, lower gamma, Week 1
  Cohen's d, prediction of agomelatine outcome: 0.25
[1]; REC, Katz Fractal Dimension, lower gamma, Week 2
  Cohen's d, prediction of agomelatine outcome: 0.23
[1]; REC, Katz Fractal Dimension, lower gamma, Week 4
  Cohen's d, prediction of agomelatine outcome: 0.23
[1]; REC, Katz Fractal Dimension, upper beta, Week 1
  Cohen's d, prediction of agomelatine outcome: 0.42
[1]; REC, Katz Fractal Dimension, upper beta, Week 2
  Cohen's d, prediction of agomelatine outcome: 0.40
[1]; REC, Katz Fractal Dimension, upper beta, Week 4
  Cohen's d, prediction of agomelatine outcome: 0.42
[1]; REC, Katz Fractal Dimension, upper gamma, Week 1
  Cohen's d, prediction of agomelatine outcome: 0.04
[1]; REC, Katz Fractal Dimension, upper gamma, Week 2
  Cohen's d, prediction of agomelatine outcome: 0.10
[1]; REC, Katz Fractal Dimension, upper gamma, Week 4
  Cohen's d, prediction of agomelatine outcome: 0.23
[1]; REC, Largest Lyapunov Exponent, upper alpha, Week 1
  Cohen's d, prediction of agomelatine outcome: 0.10
[1]; REC, Largest Lyapunov Exponent, upper alpha, Week 2
  Cohen's d, prediction of agomelatine outcome: 0.12
[1]; REC, Largest Lyapunov Exponent, upper alpha, Week 4
  Cohen's d, prediction of agomelatine outcome: 0.18
[1]; REC, Largest Lyapunov Exponent, upper gamma, Week 1
  Cohen's d, prediction of agomelatine outcome: −0.02
[1]; REC, Largest Lyapunov Exponent, upper gamma, Week 2
  Cohen's d, prediction of agomelatine outcome: 0.08
[1]; REC, Largest Lyapunov Exponent, upper gamma, Week 4
  Cohen's d, prediction of agomelatine outcome: 0.29
[1]; REC, Lempel-Ziv Complexity, lower gamma, Week 1
  Cohen's d, prediction of agomelatine outcome: −0.06
[1]; REC, Lempel-Ziv Complexity, lower gamma, Week 2
  Cohen's d, prediction of agomelatine outcome: 0.01
[1]; REC, Lempel-Ziv Complexity, lower gamma, Week 4
  Cohen's d, prediction of agomelatine outcome: 0.15
[1]; REC, Lempel-Ziv Complexity, upper alpha, Week 1
  Cohen's d, prediction of agomelatine outcome: 0.21
[1]; REC, Lempel-Ziv Complexity, upper alpha, Week 2
  Cohen's d, prediction of agomelatine outcome: 0.17
[1]; REC, Lempel-Ziv Complexity, upper alpha, Week 4
  Cohen's d, prediction of agomelatine outcome: 0.13
[1]; REC, Modified Multiscale Entropy, lower alpha, Week 1
  Cohen's d, prediction of agomelatine outcome: 0.08
[1]; REC, Modified Multiscale Entropy, lower alpha, Week 2
  Cohen's d, prediction of agomelatine outcome: 0.11
[1]; REC, Modified Multiscale Entropy, lower alpha, Week 4
  Cohen's d, prediction of agomelatine outcome: 0.19
[1]; REC, Modified Multiscale Entropy, lower gamma, Week 1
  Cohen's d, prediction of agomelatine outcome: −0.09
[1]; REC, Modified Multiscale Entropy, lower gamma, Week 2
  Cohen's d, prediction of agomelatine outcome: 0.01
[1]; REC, Modified Multiscale Entropy, lower gamma, Week 4
  Cohen's d, prediction of agomelatine outcome: 0.21
[1]; REC, Modified Multiscale Entropy, upper alpha, Week 1
  Cohen's d, prediction of agomelatine outcome: 0.19
[1]; REC, Modified Multiscale Entropy, upper alpha, Week 2
  Cohen's d, prediction of agomelatine outcome: 0.25
[1]; REC, Modified Multiscale Entropy, upper alpha, Week 4
  Cohen's d, prediction of agomelatine outcome: 0.39
[1]; REC, Multiscale Entropy, upper alpha, Week 1
  Cohen's d, prediction of agomelatine outcome: 0.05
[1]; REO, Approximate Entropy, lower gamma, Week 1
  Cohen's d, prediction of agomelatine outcome: −0.15
[1]; REO, Approximate Entropy, lower gamma, Week 2
  Cohen's d, prediction of agomelatine outcome: −0.05
[1]; REO, Approximate Entropy, lower gamma, Week 4
  Cohen's d, prediction of agomelatine outcome: 0.09
[1]; REO, Detrended Fluctuation Analysis, upper gamma, Week 1
  Cohen's d, prediction of agomelatine outcome: 0.37
[1]; REO, Detrended Fluctuation Analysis, upper gamma, Week 2
  Cohen's d, prediction of agomelatine outcome: 0.33
[1]; REO, Detrended Fluctuation Analysis, upper gamma, Week 4
  Cohen's d, prediction of agomelatine outcome: 0.32
[1]; REO, Higuchi Fractal Dimension, delta, Week 1
  Cohen's d, prediction of agomelatine outcome: −0.15
[1]; REO, Higuchi Fractal Dimension, delta, Week 2
  Cohen's d, prediction of agomelatine outcome: −0.05
[1]; REO, Higuchi Fractal Dimension, delta, Week 4
  Cohen's d, prediction of agomelatine outcome: 0.12
[1]; REO, Higuchi Fractal Dimension, lower beta, Week 1
  Cohen's d, prediction of agomelatine outcome: 0.03
[1]; REO, Higuchi Fractal Dimension, lower beta, Week 2
  Cohen's d, prediction of agomelatine outcome: 0.03
[1]; REO, Higuchi Fractal Dimension, lower beta, Week 4
  Cohen's d, prediction of agomelatine outcome: 0.05
[1]; REO, Higuchi Fractal Dimension, upper gamma, Week 1
  Cohen's d, prediction of agomelatine outcome: 0.04
[1]; REO, Higuchi Fractal Dimension, upper gamma, Week 2
  Cohen's d, prediction of agomelatine outcome: 0.06
[1]; REO, Higuchi Fractal Dimension, upper gamma, Week 4
  Cohen's d, prediction of agomelatine outcome: 0.11
[1]; REO, Katz Fractal Dimension, delta, Week 1
  Cohen's d, prediction of agomelatine outcome: 0.04
[1]; REO, Katz Fractal Dimension, delta, Week 2
  Cohen's d, prediction of agomelatine outcome: 0.07
[1]; REO, Katz Fractal Dimension, delta, Week 4
  Cohen's d, prediction of agomelatine outcome: 0.13
[1]; REO, Katz Fractal Dimension, lower beta, Week 1
  Cohen's d, prediction of agomelatine outcome: 0.28
[1]; REO, Katz Fractal Dimension, lower beta, Week 2
  Cohen's d, prediction of agomelatine outcome: 0.18
[1]; REO, Katz Fractal Dimension, lower beta, Week 4
  Cohen's d, prediction of agomelatine outcome: 0.06
[1]; REO, Katz Fractal Dimension, upper beta, Week 1
  Cohen's d, prediction of agomelatine outcome: 0.24
[1]; REO, Katz Fractal Dimension, upper beta, Week 2
  Cohen's d, prediction of agomelatine outcome: 0.24
[1]; REO, Katz Fractal Dimension, upper beta, Week 4
  Cohen's d, prediction of agomelatine outcome: 0.29
[1]; REO, Largest Lyapunov Exponent, upper alpha, Week 1
  Cohen's d, prediction of agomelatine outcome: 0.03
[1]; REO, Largest Lyapunov Exponent, upper alpha, Week 2
  Cohen's d, prediction of agomelatine outcome: 0.08
[1]; REO, Largest Lyapunov Exponent, upper alpha, Week 4
  Cohen's d, prediction of agomelatine outcome: 0.17
[1]; REO, Largest Lyapunov Exponent, upper gamma, Week 1
  Cohen's d, prediction of agomelatine outcome: −0.24
[1]; REO, Largest Lyapunov Exponent, upper gamma, Week 2
  Cohen's d, prediction of agomelatine outcome: −0.11
[1]; REO, Largest Lyapunov Exponent, upper gamma, Week 4
  Cohen's d, prediction of agomelatine outcome: 0.08
[1]; REO, Lempel-Ziv Complexity, lower gamma, Week 1
  Cohen's d, prediction of agomelatine outcome: −0.24
[1]; REO, Lempel-Ziv Complexity, lower gamma, Week 2
  Cohen's d, prediction of agomelatine outcome: −0.13
[1]; REO, Lempel-Ziv Complexity, lower gamma, Week 4
  Cohen's d, prediction of agomelatine outcome: 0.02
[1]; REO, Lempel-Ziv Complexity, theta, Week 1
  Cohen's d, prediction of agomelatine outcome: 0.13
[1]; REO, Lempel-Ziv Complexity, theta, Week 2
  Cohen's d, prediction of agomelatine outcome: 0.14
[1]; REO, Lempel-Ziv Complexity, theta, Week 4
  Cohen's d, prediction of agomelatine outcome: 0.17
[1]; REO, Lempel-Ziv Complexity, upper beta, Week 1
  Cohen's d, prediction of agomelatine outcome: 0.19
[1]; REO, Lempel-Ziv Complexity, upper beta, Week 2
  Cohen's d, prediction of agomelatine outcome: 0.21
[1]; REO, Lempel-Ziv Complexity, upper beta, Week 4
  Cohen's d, prediction of agomelatine outcome: 0.30
[1]; REO, Modified Multiscale Entropy, upper beta, Week 1
  Cohen's d, prediction of agomelatine outcome: 0.08
[1]; REO, Modified Multiscale Entropy, upper beta, Week 2
  Cohen's d, prediction of agomelatine outcome: 0.15
[1]; REO, Modified Multiscale Entropy, upper beta, Week 4
  Cohen's d, prediction of agomelatine outcome: 0.31
[1]; REO, Multiscale Entropy, lower gamma, Week 1
  Cohen's d, prediction of agomelatine outcome: −0.41
[1]; REO, Multiscale Entropy, lower gamma, Week 2
  Cohen's d, prediction of agomelatine outcome: −0.21
[1]; REO, Multiscale Entropy, lower gamma, Week 4
  Cohen's d, prediction of agomelatine outcome: 0.05
[1]; z≥0.27, full study sample, all weeks
  MADRS change, high vs low Pz low-gamma sample entropy: strong and statistically significant prediction of treatment outcome across all weeks
[2]
  all-comer effect size d, treatment response to agomelatine (as monotherapy) versus placebo: 0.26
